Laboratory results reported in patent US20200283384A1, “ANTIBACTERIAL COMPOUNDS AND METHODS OF USE THEREOF” (Wayne State University, priority 2016, published 2020).
Converted amounts (≈) assume the structure as drawn. Where two headings read alike, the source gives them in different places.

How the values were obtained:
[1] = system: 24 strains of S. aureus (SA1-SA24); assay: Broth micro-dilution MIC against 24 strains of S. aureus; type: cell-based; conditions: for MIC: Staphylococcus aureus, read-out: Compound MIC
Protocol: Compounds were tested for their anti-bacterial activity against 56 clinical isolates including 24 clinical isolates of methicillin resistant S. aureus (MRSA) and methicillin-susceptible S. aureus (MSSA), 8 strains of Enterococcus, 8 strains of Acinetobacter baumannii, 8 strains of Klebsiella pneumoniae, and 8 strains of Pseudomonas aeruginosa using a standard broth micro-dilution method as recommended by the Clinical and Laboratory Standard Institute (CLSI, M100, s23).
HN18 HN19, and HN34 were tested by a broth micro-dilution method to determine their minimal inhibitory concentration (MIC) against 24 strains of S. aureus (SA1-SA24) (Table 2). […]. Furthermore, the results for HN18 and HN34 were consistent across four repeated experiments. […]

[2] = system: S. aureus clinical isolates; assay: Synergistic effect with oxacillin (oxacillin MIC alone and in presence of SIC); type: cell-based, Staphylococcus aureus
Protocol: The synergistic effect (interaction) of HN18 and HN34 with different antibiotics against S. aureus clinical isolates was studied. The oxacillin MIC values of 8 clinical isolates of Staphylococcus aureus were determined. The oxacillin MIC of the same isolates were also determined after they were exposed to SIC of HN18, HN34 (Table 5). […] Column 2 and 3 show the oxacillin MIC value of the same isolates in presence of SIC of HN18 and HN34 respectively.

[3] = system: Methicillin-resistant S. aureus strains; S. aureus (K1902); assay: MIC and SIC in 96 well microplates (plasmid curing study); type: cell-based, Staphylococcus aureus
Protocol: Plasmid curing activity of HN18 and HN34 was evaluated. Methicillin-resistant S. aureus strains were sub-cultured on blood agar plates to obtain isolated colonies, incubated at 35° C. in a CO2 incubator. The fresh overnight bacterial inoculum was prepared by re-suspending a few isolated colonies in a tube containing 5 ml of saline. […] The sub-inhibitory concentration (SIC) is defined as the concentration before MIC (in a serial dilution method where antibiotic concentration decreases by half from each tube to the next one).
Plasmid curing activity of HN18 and HN34 was also evaluated in S. aureus (K1902) which is known to harbor a 5 kb plasmid with a chloramphenicol resistance gene. Along with the KSA reference strain, the plasmid curing activity was repeated for SA1 and SA2 strains which are MRSA (Table 4).

[4] = Table 4, KSA (S. aureus K1902), experiment I
[5] = Table 4, KSA (S. aureus K1902), experiment II
[6] = Table 4, isolate SA1, experiment I
[7] = Table 4, isolate SA1, experiment II
[8] = Table 4, isolate SA2, experiment II

## Fc1ccc(C(C2=CNC3C=CC=CC23)C2=C3C=CC=CC3NC2)cc1F (centres unmarked) [HN18, 3-((3,4-difluorophenyl)(2,7a-dihydro-1H-indol-3-yl)methyl)-3a,7a-dihydro-1H-indole]
[1]; 24 strains SA1-SA24, broth micro-dilution
  Effect against the panel of S. aureus strains: effective
[1]; isolate SA1, experiment I
  MIC: 0.5 mg/L (≈ 1.38 µM)
[1]; isolate SA1, experiment II
  MIC: 1 mg/L (≈ 2.76 µM)
[1]; isolate SA1, experiment III
  MIC: 1 mg/L (≈ 2.76 µM)
[1]; isolate SA1, experiment IV
  MIC: 1 mg/L (≈ 2.76 µM)
[1]; isolate SA2, experiment I
  MIC: 1 mg/L (≈ 2.76 µM)
[1]; isolate SA2, experiment II
  MIC: 2 mg/L (≈ 5.52 µM)
[1]; isolate SA2, experiment III
  MIC: 2 mg/L (≈ 5.52 µM)
[1]; isolate SA2, experiment IV
  MIC: 2 mg/L (≈ 5.52 µM)
[1]; isolate SA3, experiment I
  MIC: 1 mg/L (≈ 2.76 µM)
[1]; isolate SA3, experiment II
  MIC: 2 mg/L (≈ 5.52 µM)
[1]; isolate SA3, experiment III
  MIC: 2 mg/L (≈ 5.52 µM)
[1]; isolate SA3, experiment IV
  MIC: 2 mg/L (≈ 5.52 µM)
[1]; isolate SA4, experiment I
  MIC: 1 mg/L (≈ 2.76 µM)
[1]; isolate SA4, experiment II
  MIC: 2 mg/L (≈ 5.52 µM)
[1]; isolate SA4, experiment III
  MIC: 1 mg/L (≈ 2.76 µM)
[1]; isolate SA4, experiment IV
  MIC: 2 mg/L (≈ 5.52 µM)
[1]; isolate SA5, experiment I
  MIC: 1 mg/L (≈ 2.76 µM)
[1]; isolate SA5, experiment II
  MIC: 1 mg/L (≈ 2.76 µM)
[1]; isolate SA5, experiment III
  MIC: 1 mg/L (≈ 2.76 µM)
[1]; isolate SA5, experiment IV
  MIC: 2 mg/L (≈ 5.52 µM)
[1]; isolate SA6, experiment I
  MIC: 1 mg/L (≈ 2.76 µM)
[1]; isolate SA6, experiment II
  MIC: 2 mg/L (≈ 5.52 µM)
[1]; isolate SA6, experiment III
  MIC: 2 mg/L (≈ 5.52 µM)
[1]; isolate SA6, experiment IV
  MIC: 2 mg/L (≈ 5.52 µM)
[1]; isolate SA7, experiment I
  MIC: 0.5 mg/L (≈ 1.38 µM)
[1]; isolate SA7, experiment II
  MIC: 1 mg/L (≈ 2.76 µM)
[1]; isolate SA7, experiment III
  MIC: 1 mg/L (≈ 2.76 µM)
[1]; isolate SA7, experiment IV
  MIC: 1 mg/L (≈ 2.76 µM)
[1]; isolate SA8, experiment I
  MIC: 1 mg/L (≈ 2.76 µM)
[1]; isolate SA8, experiment II
  MIC: 2 mg/L (≈ 5.52 µM)
[1]; isolate SA8, experiment III
  MIC: 2 mg/L (≈ 5.52 µM)
[1]; isolate SA8, experiment IV
  MIC: 2 mg/L (≈ 5.52 µM)
[1]; isolate SA9, experiment I
  MIC: 2 mg/L (≈ 5.52 µM)
[1]; isolate SA9, experiment II
  MIC: 2 mg/L (≈ 5.52 µM)
[1]; isolate SA10, experiment I
  MIC: 2 mg/L (≈ 5.52 µM)
[1]; isolate SA10, experiment II
  MIC: 2 mg/L (≈ 5.52 µM)
[1]; isolate SA11, experiment I
  MIC: 2 mg/L (≈ 5.52 µM)
[1]; isolate SA11, experiment II
  MIC: 2 mg/L (≈ 5.52 µM)
[1]; isolate SA12, experiment I
  MIC: 2 mg/L (≈ 5.52 µM)
[1]; isolate SA12, experiment II
  MIC: 2 mg/L (≈ 5.52 µM)
[1]; isolate SA13, experiment I
  MIC: 2 mg/L (≈ 5.52 µM)
[1]; isolate SA13, experiment II
  MIC: 2 mg/L (≈ 5.52 µM)
[1]; isolate SA14, experiment I
  MIC: 0.5 mg/L (≈ 1.38 µM)
[1]; isolate SA14, experiment II
  MIC: 0.5 mg/L (≈ 1.38 µM)
[1]; isolate SA15, experiment I
  MIC: 2 mg/L (≈ 5.52 µM)
[1]; isolate SA15, experiment II
  MIC: 2 mg/L (≈ 5.52 µM)
[1]; isolate SA16, experiment I
  MIC: 1 mg/L (≈ 2.76 µM)
[1]; isolate SA16, experiment II
  MIC: 2 mg/L (≈ 5.52 µM)
[1]; isolate SA17, experiment I
  MIC: 2 mg/L (≈ 5.52 µM)
[1]; isolate SA17, experiment II
  MIC: 2 mg/L (≈ 5.52 µM)
[1]; isolate SA18, experiment I
  MIC: 2 mg/L (≈ 5.52 µM)
[1]; isolate SA18, experiment II
  MIC: 2 mg/L (≈ 5.52 µM)
[1]; isolate SA19, experiment I
  MIC: 2 mg/L (≈ 5.52 µM)
[1]; isolate SA19, experiment II
  MIC: 2 mg/L (≈ 5.52 µM)
[1]; isolate SA20, experiment I
  MIC: 2 mg/L (≈ 5.52 µM)
[1]; isolate SA20, experiment II
  MIC: 2 mg/L (≈ 5.52 µM)
[1]; isolate SA21, experiment I
  MIC: 2 mg/L (≈ 5.52 µM)
[1]; isolate SA21, experiment II
  MIC: 2 mg/L (≈ 5.52 µM)
[1]; isolate SA22, experiment I
  MIC: 2 mg/L (≈ 5.52 µM)
[1]; isolate SA22, experiment II
  MIC: 2 mg/L (≈ 5.52 µM)
[1]; isolate SA23, experiment I
  MIC: 2 mg/L (≈ 5.52 µM)
[1]; isolate SA23, experiment II
  MIC: 2 mg/L (≈ 5.52 µM)
[1]; isolate SA24, experiment I
  MIC: 2 mg/L (≈ 5.52 µM)
[1]; isolate SA24, experiment II
  MIC: 2 mg/L (≈ 5.52 µM)
[2]; S. aureus clinical isolates, compound at SIC
  Synergistic activity in combination with oxacillin: decrease in the oxacillin MIC
[2]; isolate SA3, experiment I
  Oxacillin MIC in presence of SIC of the compound (1 μg/ml): 0.5 mg/L
[2]; isolate SA3, experiment II
  Oxacillin MIC in presence of SIC of the compound (1 μg/ml): 0.5 mg/L
[2]; isolate SA4, experiment I
  Oxacillin MIC in presence of SIC of the compound (1 μg/ml): 0.5 mg/L
[2]; isolate SA4, experiment II
  Oxacillin MIC in presence of SIC of the compound (1 μg/ml): 1 mg/L
[2]; isolate SA5, experiment I
  Oxacillin MIC in presence of SIC of the compound (1 μg/ml): 0.03 mg/L
[2]; isolate SA5, experiment II
  Oxacillin MIC in presence of SIC of the compound (1 μg/ml): 0.03 mg/L
[2]; isolate SA9, experiment I
  Oxacillin MIC in presence of SIC of the compound (1 μg/ml): 2 mg/L
[2]; isolate SA9, experiment II
  Oxacillin MIC in presence of SIC of the compound (1 μg/ml): 4 mg/L
[2]; isolate SA10, experiment I
  Oxacillin MIC in presence of SIC of the compound (1 μg/ml): <0.03 mg/L
[2]; isolate SA10, experiment II
  Oxacillin MIC in presence of SIC of the compound (1 μg/ml): <0.03 mg/L
[2]; isolate SA11, experiment I
  Oxacillin MIC in presence of SIC of the compound (1 μg/ml): <0.03 mg/L
[2]; isolate SA11, experiment II
  Oxacillin MIC in presence of SIC of the compound (1 μg/ml): <0.03 mg/L
[2]; isolate SA15, experiment I
  Oxacillin MIC in presence of SIC of the compound (1 μg/ml): <0.03 mg/L
[2]; isolate SA15, experiment II
  Oxacillin MIC in presence of SIC of the compound (1 μg/ml): <0.03 mg/L
[2]; isolate SA18, experiment I
  Oxacillin MIC in presence of SIC of the compound (1 μg/ml): <0.03 mg/L
[2]; isolate SA18, experiment II
  Oxacillin MIC in presence of SIC of the compound (1 μg/ml): <0.03 mg/L
[3]; Table 3, isolate SA1 (MRSA)
  SIC: 0.5 µg/mL
[3]; Table 3, isolate SA2 (MRSA)
  SIC: 1.0 µg/mL
[3]; Table 3, isolate SA3 (MRSA)
  SIC: 1.0 µg/mL
[3]; Table 3, isolate SA4 (MRSA)
  SIC: 0.5 µg/mL
[3]; Table 3, isolate SA5 (MRSA)
  SIC: 1.0 µg/mL
[3]; Table 3, isolate SA6 (MRSA)
  SIC: 0.5 µg/mL
[3]; Table 3, isolate SA7 (MRSA)
  SIC: 0.5 µg/mL
[3]; Table 3, isolate SA8 (MRSA)
  SIC: 1.0 µg/mL
[3]; [4]
  MIC: 2 mg/L (≈ 5.52 µM)
  SIC: 1 µg/mL
[3]; [5]
  MIC: 2 mg/L (≈ 5.52 µM)
  SIC: 1 µg/mL
[3]; [6]
  MIC: 2 mg/L (≈ 5.52 µM)
  SIC: 1 µg/mL
[3]; [7]
  MIC: 2 mg/L (≈ 5.52 µM)
  SIC: 1 µg/mL
[3]; Table 4, isolate SA2, experiment I
  SIC: 1 µg/mL
[3]; [8]
  MIC: 2 mg/L (≈ 5.52 µM)
  SIC: 1 µg/mL
